Drawing on ChEMBL document CHEMBL3603806, “Discovery of a 6-(pyridin-3-yl)benzo[d]thiazole template for optimization of hedgehog and PI3K/AKT/mTOR dual inhibitors” (Bioorg Med Chem Lett, 2015), this text covers inhibition, IC50 and solubility for 17 compounds.

Series [1] concerns the target T1, Phosphatidylinositol 4,5-bisphosphate 3-kinase catalytic subunit alpha isoform (Homo sapiens, UniProt P42336). Kind of series: Inhibition of PI3Kalpha (unknown origin) assessed as reduction in luminescence signaling at 1 uM by kinase-Glo plus luminescent kinase assay.
The target of series [2] is Protein smoothened (Mus musculus, UniProt P56726). Kind of series: Inhibition of SMO in mouse NIH/3T3 cells assessed as inhibition of SAG-induced hedgehog-mediated luminescence signaling by GRE-luciferase reporter gene assay. Type of series: cell-based.
The target of series [3] is Protein smoothened (Homo sapiens, UniProt Q99835). The series can be described thus: Inhibition of human Smo expressed in human U2OS cells assessed as reduction in BODIPY-cyclopamine fluorescence signaling by competitive displacement assay. Type of series: cell-based.
For series [4], the target named is T1, Phosphatidylinositol 4,5-bisphosphate 3-kinase catalytic subunit alpha isoform. The series can be described thus: Inhibition of PI3Kalpha (unknown origin) assessed as reduction in luminescence signaling by kinase-Glo plus luminescent kinase assay.
Series [5] deals with T2, Phosphatidylinositol 4,5-bisphosphate 3-kinase catalytic subunit delta isoform (Homo sapiens) (UniProt O00329).
T2 sequence (whole entry): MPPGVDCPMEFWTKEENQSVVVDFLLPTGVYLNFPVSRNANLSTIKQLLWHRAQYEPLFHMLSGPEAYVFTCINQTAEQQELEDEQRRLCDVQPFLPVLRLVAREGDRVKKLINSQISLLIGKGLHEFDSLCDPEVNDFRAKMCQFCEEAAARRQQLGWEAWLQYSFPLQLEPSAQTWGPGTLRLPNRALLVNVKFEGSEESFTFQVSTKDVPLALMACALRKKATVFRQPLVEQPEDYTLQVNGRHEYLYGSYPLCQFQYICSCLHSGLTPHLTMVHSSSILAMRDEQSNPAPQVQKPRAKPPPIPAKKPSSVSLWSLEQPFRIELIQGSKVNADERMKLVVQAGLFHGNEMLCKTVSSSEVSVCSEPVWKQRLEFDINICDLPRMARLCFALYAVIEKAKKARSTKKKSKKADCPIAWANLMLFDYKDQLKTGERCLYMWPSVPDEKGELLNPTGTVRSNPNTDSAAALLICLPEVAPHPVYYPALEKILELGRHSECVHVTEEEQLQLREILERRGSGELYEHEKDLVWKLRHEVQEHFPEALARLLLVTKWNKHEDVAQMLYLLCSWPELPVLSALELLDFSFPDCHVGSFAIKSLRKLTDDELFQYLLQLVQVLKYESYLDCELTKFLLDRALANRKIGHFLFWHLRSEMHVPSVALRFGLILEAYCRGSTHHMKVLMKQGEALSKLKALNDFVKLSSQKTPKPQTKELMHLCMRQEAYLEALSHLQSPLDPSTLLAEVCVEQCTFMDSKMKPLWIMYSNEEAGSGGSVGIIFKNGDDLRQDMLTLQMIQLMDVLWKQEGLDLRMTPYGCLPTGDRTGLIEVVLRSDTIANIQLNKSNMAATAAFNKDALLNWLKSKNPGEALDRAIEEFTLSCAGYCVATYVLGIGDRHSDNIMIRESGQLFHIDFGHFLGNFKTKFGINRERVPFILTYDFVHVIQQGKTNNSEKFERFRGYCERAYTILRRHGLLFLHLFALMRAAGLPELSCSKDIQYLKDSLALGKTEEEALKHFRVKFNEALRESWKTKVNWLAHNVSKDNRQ
The series can be described thus: Inhibition of N-terminal poly-His tagged human p110-delta expressed in Sf9 cells incubated for 20 mins by alpha screen assay.

A short description of series [6]: Solubility of the compound. Type of series: physicochemical.

Calls of active or inactive are those of the source. No cut-off for these calls is given here.

T1 sequence (P42336 whole entry, canonical isoform): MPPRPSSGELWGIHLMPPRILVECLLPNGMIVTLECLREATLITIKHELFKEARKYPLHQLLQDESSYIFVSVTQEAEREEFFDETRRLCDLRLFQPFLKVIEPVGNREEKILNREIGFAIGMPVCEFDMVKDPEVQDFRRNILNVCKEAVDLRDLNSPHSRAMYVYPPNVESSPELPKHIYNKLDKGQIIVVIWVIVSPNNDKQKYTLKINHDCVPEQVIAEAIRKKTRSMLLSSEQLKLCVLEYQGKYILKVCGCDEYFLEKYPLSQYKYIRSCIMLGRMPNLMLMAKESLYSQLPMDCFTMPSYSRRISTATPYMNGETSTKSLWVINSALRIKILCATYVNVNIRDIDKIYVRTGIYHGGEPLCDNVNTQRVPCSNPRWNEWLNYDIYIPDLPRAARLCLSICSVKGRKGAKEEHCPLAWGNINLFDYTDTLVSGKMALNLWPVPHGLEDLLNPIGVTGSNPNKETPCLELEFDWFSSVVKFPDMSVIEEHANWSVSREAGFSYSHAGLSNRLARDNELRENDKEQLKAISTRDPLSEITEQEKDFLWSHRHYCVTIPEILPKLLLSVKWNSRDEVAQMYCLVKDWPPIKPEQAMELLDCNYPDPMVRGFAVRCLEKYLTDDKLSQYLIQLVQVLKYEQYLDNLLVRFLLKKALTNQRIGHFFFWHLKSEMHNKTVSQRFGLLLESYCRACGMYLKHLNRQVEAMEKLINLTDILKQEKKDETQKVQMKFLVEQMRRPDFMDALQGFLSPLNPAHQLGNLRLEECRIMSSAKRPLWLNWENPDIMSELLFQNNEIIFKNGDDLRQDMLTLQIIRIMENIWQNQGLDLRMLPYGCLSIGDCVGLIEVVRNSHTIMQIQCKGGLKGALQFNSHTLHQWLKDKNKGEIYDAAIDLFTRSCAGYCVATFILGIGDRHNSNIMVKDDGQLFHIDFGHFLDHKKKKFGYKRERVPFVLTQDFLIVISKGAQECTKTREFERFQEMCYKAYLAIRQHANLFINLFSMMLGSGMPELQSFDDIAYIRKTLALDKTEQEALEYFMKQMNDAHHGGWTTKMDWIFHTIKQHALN
Protein smoothened (Mus musculus, UniProt P56726), sequence (P56726 whole entry): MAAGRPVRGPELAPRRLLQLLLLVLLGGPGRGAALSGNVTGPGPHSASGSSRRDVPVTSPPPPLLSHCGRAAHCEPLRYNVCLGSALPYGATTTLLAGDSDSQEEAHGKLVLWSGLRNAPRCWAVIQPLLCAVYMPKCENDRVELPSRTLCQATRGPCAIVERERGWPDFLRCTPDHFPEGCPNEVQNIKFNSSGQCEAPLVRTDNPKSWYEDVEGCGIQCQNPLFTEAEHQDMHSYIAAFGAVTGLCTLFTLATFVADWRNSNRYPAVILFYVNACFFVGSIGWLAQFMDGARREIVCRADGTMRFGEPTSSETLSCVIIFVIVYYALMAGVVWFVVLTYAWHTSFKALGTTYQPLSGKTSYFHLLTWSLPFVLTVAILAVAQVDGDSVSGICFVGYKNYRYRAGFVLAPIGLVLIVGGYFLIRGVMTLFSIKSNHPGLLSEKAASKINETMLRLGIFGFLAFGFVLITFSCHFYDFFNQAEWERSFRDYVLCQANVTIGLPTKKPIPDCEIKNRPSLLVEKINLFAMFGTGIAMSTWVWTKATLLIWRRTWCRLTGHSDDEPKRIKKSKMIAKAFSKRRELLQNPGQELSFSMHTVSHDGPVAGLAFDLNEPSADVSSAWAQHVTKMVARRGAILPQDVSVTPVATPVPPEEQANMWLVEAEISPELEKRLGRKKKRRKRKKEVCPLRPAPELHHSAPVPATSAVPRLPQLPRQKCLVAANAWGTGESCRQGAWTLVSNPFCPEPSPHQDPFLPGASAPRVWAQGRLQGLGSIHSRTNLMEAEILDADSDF
Protein smoothened (Homo sapiens, UniProt Q99835), sequence (Q99835 whole entry, canonical isoform): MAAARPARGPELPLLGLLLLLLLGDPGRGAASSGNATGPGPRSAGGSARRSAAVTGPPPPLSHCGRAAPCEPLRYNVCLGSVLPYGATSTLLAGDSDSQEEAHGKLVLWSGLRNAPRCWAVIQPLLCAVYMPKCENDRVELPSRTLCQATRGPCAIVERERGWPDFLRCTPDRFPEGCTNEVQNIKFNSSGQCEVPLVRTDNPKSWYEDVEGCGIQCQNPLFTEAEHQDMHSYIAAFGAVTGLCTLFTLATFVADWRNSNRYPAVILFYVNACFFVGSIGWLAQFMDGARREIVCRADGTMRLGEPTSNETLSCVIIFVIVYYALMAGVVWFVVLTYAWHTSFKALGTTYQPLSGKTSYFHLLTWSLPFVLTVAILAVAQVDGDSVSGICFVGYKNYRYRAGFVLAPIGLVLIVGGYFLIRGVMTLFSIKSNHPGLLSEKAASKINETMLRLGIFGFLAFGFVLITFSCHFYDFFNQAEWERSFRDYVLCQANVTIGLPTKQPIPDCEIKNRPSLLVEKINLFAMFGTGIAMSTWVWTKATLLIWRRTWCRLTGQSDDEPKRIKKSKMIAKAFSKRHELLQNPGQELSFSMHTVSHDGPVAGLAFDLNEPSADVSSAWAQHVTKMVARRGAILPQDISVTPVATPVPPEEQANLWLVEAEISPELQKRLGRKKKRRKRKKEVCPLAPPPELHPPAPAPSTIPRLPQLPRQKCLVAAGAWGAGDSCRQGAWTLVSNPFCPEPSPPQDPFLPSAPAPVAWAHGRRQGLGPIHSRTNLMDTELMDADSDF

As to `CC(=O)Nc1nc2ccc(-c3cnc(Cl)c(NC(=O)c4ccc(F)cc4)c3)cc2s1`, the inhibition in series [1] was 48%. The IC50 at Protein smoothened [2] worked out at 170 nM. Consider `CC(=O)Nc1nc2ccc(-c3cnc(Cl)c(NC(=O)Cc4ccccc4)c3)cc2s1`, for which the IC50 on Protein smoothened [2] stood at 3400 nM. With `CC(=O)Nc1nc2ccc(-c3cnc(Cl)c(NC(=O)c4cccc(Cl)c4)c3)cc2s1`, the inhibition in series [1] worked out at 93%. The results for the IC50 (on Protein smoothened [3]; on Protein smoothened [2]; in series [4]) were 10 nM, 41 nM and 980 nM, respectively. With `CC(=O)Nc1nc2ccc(-c3cnc(Cl)c(NC(=O)c4cccc(F)c4)c3)cc2s1`, the 50% inhibitory concentration (IC50) on Protein smoothened [2] is 5000 nM. On the same count and under the same terms, the figure for `CC(=O)Nc1nc2ccc(-c3cnc(Cl)c(NC(=O)C4CC4)c3)cc2s1` is more than 10000 nM. Regarding `O=C(Nc1cc(-c2ccc3nc(NCC4CC4)sc3c2)cnc1Cl)c1ccccc1`, the IC50 on Protein smoothened [2] was 150 nM. As for `CC(=O)Nc1nc2ccc(-c3cnc(Cl)c(NCc4ccccc4)c3)cc2s1`, the half-inhibitory concentration (IC50) on Protein smoothened [2] was determined as 940 nM. In the case of `CC(=O)Nc1nc2ccc(-c3cnc(Cl)c(NC(=O)c4ccccc4)c3)cc2s1`, in series [1], the inhibition worked out at 9%. Also, the values for the IC50 at Protein smoothened [3] and at Protein smoothened [2] were 5.6 nM and 64 nM, respectively. Consider `O=C(Nc1cc(-c2ccc3nc(NC4CC4)sc3c2)cnc1Cl)c1ccccc1`, for which, on Protein smoothened [2], the IC50 came out at 210 nM. On to `O=C(Nc1cc(-c2ccc3nc(NC4CC4)sc3c2)cnc1Cl)c1cccc(Cl)c1`, for which the IC50 on Protein smoothened [2] came out at 150 nM. With `CC(=O)Nc1nc2ccc(-c3cnc(Cl)c(NC(=O)c4ccc(Cl)cc4)c3)cc2s1`, the IC50 at Protein smoothened [2] is more than 10000 nM. Take `O=C(Nc1cc(-c2ccc3nc(NCC4CC4)sc3c2)cnc1Cl)c1cccc(Cl)c1`: at Protein smoothened [2], the IC50 worked out at 190 nM. Regarding `CC(=O)Nc1nc2ccc(-c3cnc(Cl)c(NC(C#N)c4ccccc4)c3)cc2s1` (configuration not stated), the inhibition in series [1] was 85%. Further, the IC50 at Protein smoothened [2] was found to be 100 nM; in series [4] it was 490 nM. For `CC(=O)Nc1nc2ccc(-c3cnc(Cl)c(NS(=O)(=O)c4ccc(F)cc4)c3)cc2s1`, the inhibition entry in series [5] is “Active”. Moreover, the IC50 at Protein smoothened [2] worked out at 120 nM. Moreover, the solubility result in series [6] was “Insoluble”. Take `CC(=O)Nc1nc2ccc(-c3cnc(Cl)c(NC(=O)c4ccccc4Cl)c3)cc2s1`: on Protein smoothened [2], the IC50 is 4100 nM. With `CC(=O)Nc1nc2ccc(-c3cnc(Cl)c(NC(=O)c4ccccc4F)c3)cc2s1`, at Protein smoothened [2], the IC50 was more than 10000 nM. Turning to `CC(=O)Nc1nc2ccc(-c3cnc(Cl)c(NC(=O)c4ccc(C)cc4)c3)cc2s1`, the IC50 on Protein smoothened [2] was found to be 810 nM.
